# Paper PMC6009956, “Design, synthesis and biological activity of N^4-phenylsubstituted-7H-pyrrolo[2,3-d]pyrimidin-4-amines as dual inhibitors of aurora kinase A and epidermal growth factor receptor kinase” (Journal of Enzyme Inhibition and Medicinal Chemistry, 2017)
# Read-outs that look alike come from different tables or passages of the source.
# Legend:
# aurora A kinase (AURKA) = target: T1, aurora A kinase (AURKA) (Homo sapiens, UniProt O14965); assay: ADP-Glo kinase assay, Aurora A; format: biochemical
# T1 construct: purchased BPS Bioscience (assay run externally by the vendor)
# T1 sequence (O14965 1-403): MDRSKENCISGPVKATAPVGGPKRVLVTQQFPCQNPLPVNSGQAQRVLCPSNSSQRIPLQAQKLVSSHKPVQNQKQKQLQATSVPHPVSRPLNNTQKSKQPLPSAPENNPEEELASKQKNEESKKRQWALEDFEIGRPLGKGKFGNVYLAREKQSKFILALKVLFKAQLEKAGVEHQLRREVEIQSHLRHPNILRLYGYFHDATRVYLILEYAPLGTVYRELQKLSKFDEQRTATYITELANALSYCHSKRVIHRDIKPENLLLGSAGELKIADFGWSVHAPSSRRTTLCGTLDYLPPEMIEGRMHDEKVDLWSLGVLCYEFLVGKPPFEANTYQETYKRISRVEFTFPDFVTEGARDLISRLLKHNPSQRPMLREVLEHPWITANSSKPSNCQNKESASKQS
# AURKA = target: T2, AURKA (Homo sapiens, UniProt O14965); assay: DiscoverX competition binding assay, AURKA; conditions: read-out: Binding constant (Kd) AURKA
# T2 construct: purchased DiscoverX Corporation (assay run externally by the vendor)
# T2 sequence (O14965 1-403): T1 sequence (O14965 1-403)
# Procedure: (§1) The assay was performed externally at DiscoverX Corporation using a competition binding assay that quantitatively measures the ability of a compound to compete with an immobilised, active-site directed ligand[24]. The assay is performed by combining three components: DNA-tagged kinase, immobilised ligand and a test compound. The ability of the test compound to compete with the immobilised ligand was measured via quantitative PCR of the DNA tag. An 11-point 3-fold serial dilution of each test compound was prepared in 100% of DMSO at 100× final test concentration and subsequently diluted to 1× in the assay (final DMSO concentration = 1%). […] Binding constants (Kd) were calculated with a standard dose-response curve using the Hill equation.
# (§2) Binding Affinities for EGFR, AURKA and AURKB
# (§3) The assay was performed externally at DiscoverX Corporation using a competition binding assay that quantitatively measures the ability of a compound to compete with an immobilized, active-site directed ligand for target kinases AURKA, AURKB and EGFR.23 The assay is performed by combining three components: DNA-tagged kinase; immobilized ligand; and a test compound. The ability of the test compound to compete with the immobilized ligand was measured via quantitative PCR of the DNA tag. […] Compound Kds were determined using a compound top […]
# CAL cells = assay: Cell killing, PI staining and FACS, CAL; format: cell-based; conditions: 100 µM, 72 h
# Procedure: (§4) FADU, BHY, SAS and CAL cell lines were obtained from ATCC-LGC and were cultured in DMEM (Invitrogen, Germany) supplemented with 10% of heat activated bovine serum (FBS, PAA, Germany), 1% of glutamine, 1% of penicillin-streptomycin (Invitrogen, Germany). To measure proliferation, SCCHN cells were split, reseeded (5 × 10^5 in 25 cm^2 flasks) and counted at the indicated time points. Cells were then replated at the initial density. The fold increase in cell number was calculated, all given results are based on triplicate experiments. To assess cell death 5 × 10^5 cells were stained with propidium iodide (PI, Sigma, Germany). Following incubation, cells were washed, resuspended in PBS, and analysed by flow cytometry. The fraction of PI-positive cells is reported as dead cell fraction.
# (§5) Figure 3. […] Cells were incubated with compound 2 for 48 h and then subjected to PI staining and FACS analysis. PI-positive cell fraction as measure of cell death is reported. (B) Four SCCHN cell lines were incubated with 100 μM of compound 2 and counted on the indicated days. Experiments in triplicates, fold growth shown. (C) EGFR expression of SCCHN cell lines. EGFR high and low as detected by western blot analysis (D) The SCCHN cell lines were incubated with 100 μM of compound 2 for 72 h. Percent PI positive cells are given. Experiments in triplicates.
# SAS cells = assay: Cell killing, PI staining and FACS, SAS; format: cell-based; conditions: 100 µM, 72 h
# Procedure: as §4, §5
# BHY cells = assay: Proliferation (cell counting), BHY; format: cell-based; conditions: 100 µM
# Procedure: as §4, §5
# FADU cells = assay: Proliferation (cell counting), FADU; format: cell-based; conditions: 100 µM
# Procedure: as §4, §5
# EGFR = EGFR (Homo sapiens, UniProt P00533); assay: DiscoverX competition binding assay, EGFR; design: purchased DiscoverX Corporation (assay run externally by the vendor); conditions: read-out: Binding constant (Kd) EGFR
# Procedure: as §1, §2, §3
# EGFR, sequence (P00533 25-1210): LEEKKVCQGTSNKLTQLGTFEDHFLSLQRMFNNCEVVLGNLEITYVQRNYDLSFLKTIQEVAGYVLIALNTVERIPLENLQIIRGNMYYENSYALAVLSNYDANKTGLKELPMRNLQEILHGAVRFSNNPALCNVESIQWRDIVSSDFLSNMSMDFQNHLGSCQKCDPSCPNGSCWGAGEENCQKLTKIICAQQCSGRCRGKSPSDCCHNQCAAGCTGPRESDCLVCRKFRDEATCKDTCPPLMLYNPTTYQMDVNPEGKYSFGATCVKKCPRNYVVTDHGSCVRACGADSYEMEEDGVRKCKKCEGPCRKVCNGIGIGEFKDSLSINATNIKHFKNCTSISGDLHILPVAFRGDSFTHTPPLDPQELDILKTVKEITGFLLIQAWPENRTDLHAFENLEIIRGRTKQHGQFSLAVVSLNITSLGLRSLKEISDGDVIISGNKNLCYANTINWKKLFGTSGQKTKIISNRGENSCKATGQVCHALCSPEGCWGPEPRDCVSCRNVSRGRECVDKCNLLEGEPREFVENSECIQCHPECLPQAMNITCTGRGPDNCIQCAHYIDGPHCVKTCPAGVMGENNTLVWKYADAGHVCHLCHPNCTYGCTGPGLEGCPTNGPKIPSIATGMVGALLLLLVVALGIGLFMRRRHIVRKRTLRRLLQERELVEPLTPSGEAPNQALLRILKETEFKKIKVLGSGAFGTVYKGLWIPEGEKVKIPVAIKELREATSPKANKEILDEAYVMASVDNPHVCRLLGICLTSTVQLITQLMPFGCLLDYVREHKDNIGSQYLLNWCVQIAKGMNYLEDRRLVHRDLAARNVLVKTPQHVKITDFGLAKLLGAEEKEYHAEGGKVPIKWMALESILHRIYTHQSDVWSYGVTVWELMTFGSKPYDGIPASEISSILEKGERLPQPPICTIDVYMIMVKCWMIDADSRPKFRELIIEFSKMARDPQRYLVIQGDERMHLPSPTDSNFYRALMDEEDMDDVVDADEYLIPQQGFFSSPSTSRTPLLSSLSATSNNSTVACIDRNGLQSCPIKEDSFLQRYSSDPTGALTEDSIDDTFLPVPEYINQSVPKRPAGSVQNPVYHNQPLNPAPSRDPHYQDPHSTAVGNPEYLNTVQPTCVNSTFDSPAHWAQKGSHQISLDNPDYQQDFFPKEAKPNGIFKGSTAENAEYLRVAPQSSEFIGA
compound,measurement,setting,value
"Brc1cccc(Nc2ncnc3[nH]ccc23)c1 [Compound 2, N^4-(3-bromophenyl)-7H-pyrrolo[2,3-d]pyrimidine-4-amine]",IC50,"aurora A kinase (AURKA); 10 µM ATP, triplicate, read-out: AURKA IC50 ± SD",1990 ± 50 nM
same,IC50,"aurora A kinase (AURKA); 10 µM ATP/0.2 mg/ml Kemptide, read-out: Aurora A IC50 (dose-response curve, supplement)",2000 nM
same,Aurora A % Activity Set1,aurora A kinase (AURKA); Log[nM] 0,107%
same,Aurora A % Activity Set2,aurora A kinase (AURKA); Log[nM] 0,94%
same,Aurora A % Activity Set3,aurora A kinase (AURKA); Log[nM] 0,94%
same,Aurora A % Activity Set1,aurora A kinase (AURKA); Log[nM] 1.0,109%
same,Aurora A % Activity Set2,aurora A kinase (AURKA); Log[nM] 1.0,97%
same,Aurora A % Activity Set3,aurora A kinase (AURKA); Log[nM] 1.0,96%
same,Aurora A % Activity Set1,aurora A kinase (AURKA); Log[nM] 1.5,109%
same,Aurora A % Activity Set2,aurora A kinase (AURKA); Log[nM] 1.5,96%
same,Aurora A % Activity Set3,aurora A kinase (AURKA); Log[nM] 1.5,101%
same,Aurora A % Activity Set1,aurora A kinase (AURKA); Log[nM] 2.0,102%
same,Aurora A % Activity Set2,aurora A kinase (AURKA); Log[nM] 2.0,97%
same,Aurora A % Activity Set3,aurora A kinase (AURKA); Log[nM] 2.0,105%
same,Aurora A % Activity Set1,aurora A kinase (AURKA); Log[nM] 2.5,94%
same,Aurora A % Activity Set2,aurora A kinase (AURKA); Log[nM] 2.5,88%
same,Aurora A % Activity Set3,aurora A kinase (AURKA); Log[nM] 2.5,95%
same,Aurora A % Activity Set1,aurora A kinase (AURKA); Log[nM] 3.0,70%
same,Aurora A % Activity Set2,aurora A kinase (AURKA); Log[nM] 3.0,66%
same,Aurora A % Activity Set3,aurora A kinase (AURKA); Log[nM] 3.0,69%
same,Aurora A % Activity Set1,aurora A kinase (AURKA); Log[nM] 3.5,35%
same,Aurora A % Activity Set2,aurora A kinase (AURKA); Log[nM] 3.5,34%
same,Aurora A % Activity Set3,aurora A kinase (AURKA); Log[nM] 3.5,34%
same,Aurora A % Activity Set1,aurora A kinase (AURKA); Log[nM] 4.0,16%
same,Aurora A % Activity Set2,aurora A kinase (AURKA); Log[nM] 4.0,14%
same,Aurora A % Activity Set3,aurora A kinase (AURKA); Log[nM] 4.0,14%
same,Aurora A % Activity Set1,aurora A kinase (AURKA); Log[nM] 4.5,6%
same,Aurora A % Activity Set2,aurora A kinase (AURKA); Log[nM] 4.5,5%
same,Aurora A % Activity Set3,aurora A kinase (AURKA); Log[nM] 4.5,5%
same,Aurora A % Activity Set1,aurora A kinase (AURKA); Log[nM] 5.0,5%
same,Aurora A % Activity Set2,aurora A kinase (AURKA); Log[nM] 5.0,5%
same,Aurora A % Activity Set3,aurora A kinase (AURKA); Log[nM] 5.0,5%
same,Kd,AURKA,3400 nM
same,Cell killing (PI positive cells),CAL cells,efficient cell killing
same,Cell killing (PI positive cells),SAS cells,efficient cell killing
same,Cell growth (fold growth),BHY cells,completely inhibited cell growth
same,Cell growth (fold growth),FADU cells,completely inhibited cell growth
same,Kd,EGFR,67 nM
